Laboratory results published in the supplement of paper PMC4862054.

Assays:
BT-474 [1] = settings: 72 h
Outline: (§1)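 Breast cancer cell lines in 20 µl suspension were added to 384-well plates already holding compound at 5 concentrations, spaced in 10-fold steps across a compound-specific 10,000-fold range, and incubated for 72 h. CellTox Green fluorescence (485/520 nm) was read first to measure cell death, followed by CellTiter-Glo luminescence for viability after 10 min at room temperature. Each plate was normalised to 0.1 % DMSO and a positive kill control. EC50 values came from dose-response curve fits and were censored at the top concentration.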

BT-549 [2] = settings: 72 h
Outline: as §1

CAL-51 [3] = settings: 72 h
Outline: as §1

CAL-85-1 [4] = settings: 72 h
Outline: as §1

HCC1937 = settings: 72 h
Outline: as §1

MCF-10A = settings: 72 h
Outline: as §1

MDA-MB-231 [5] = settings: 72 h
Outline: as §1

MDA-MB-436 = settings: 72 h
Outline: as §1

MDA-MB-453 [6] = settings: 72 h
Outline: as §1

MDA-MB-468 [7] = settings: 72 h
Outline: as §1

SK-BR-3 [8] = settings: 72 h
Outline: as §1

MDA-MB-453 [9] = settings: 72 h; remark: listed apart in the source
Outline: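 Rows with a drug sensitivity score of zero were dropped, and EC50 was taken from the fitted percent-inhibition dose-response curve, censored at the highest concentration. Data were normalised on each plate to vehicle and a positive kill control and checked by Z'-factor. The assay seeded breast cancer cell lines in 20 µl onto 384-well plates pre-loaded with compound in 5 µl medium for 72 h, then added 2.5 µl CellTiter-Blue for 2 h at 37 °C and read fluorescence at 560/590 nm.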

CAL-148 = assay: normalised viability (% of control), CellTiter-Blue; higher = more viable cells (about 100 = DMSO control); settings: 3000 nM; incubation time: 72 h
Experimental: (§2)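 DSRT, CellTiter-Blue viability, 72 h incubation. Signal is normalised to DMSO and benzethonium chloride controls. Value is the normalised response at dose 8.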

CAL-51 [10] = assay: as above; settings: 3000 nM; incubation time: 72 h
Experimental: as §2

CAL-85-1 [11] = assay: as above; settings: 3000 nM; incubation time: 72 h
Experimental: as §2

DU-4475 [12] = assay: as above; settings: 3000 nM; incubation time: 72 h
Experimental: as §2

HDQ-P1 [13] = assay: as above; settings: 3000 nM; incubation time: 72 h
Experimental: as §2

MDA-MB-453 [14] = assay: as above; settings: 3000 nM; incubation time: 72 h
Experimental: as §2

BT-474 [15] = assay: normalised viability (% of control), CellTiter-Blue; higher = more viable cells (about 100 = DMSO control); settings: 100 nM; incubation time: 72 h
Outline: (§3)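 Each value is normalised viability at a single listed concentration of the series. Breast cancer cell lines in 384-well plates were incubated 72 h with compound and read by CellTiter-Blue fluorescence at 560/590 nm, with vehicle set to 100 and a positive kill control to 0 on every plate.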

BT-549 [16] = assay: as above; settings: 100 nM; incubation time: 72 h
Outline: as §3

CAL-120 [17] = assay: as above; settings: 100 nM; incubation time: 72 h
Outline: as §3

CAL-85-1 [18] = assay: as above; settings: 10 nM; incubation time: 72 h
Outline: as §3

DU-4475 [19] = assay: as above; settings: 10 nM; incubation time: 72 h
Outline: as §3

HCC1143 = assay: as above; settings: 100 nM; incubation time: 72 h
Outline: as §3

Hs578T [20] = assay: as above; settings: 100 nM; incubation time: 72 h
Outline: as §3

MDA-MB-231 [21] = assay: as above; settings: 100 nM; incubation time: 72 h
Outline: as §3

MDA-MB-468 [22] = assay: as above; settings: 100 nM; incubation time: 72 h
Outline: as §3

SK-BR-3 [23] = assay: as above; settings: 100 nM; incubation time: 72 h
Outline: as §3

HDQ-P1 [24] = assay: drug sensitivity score (DSS), CellTiter-Glo (DSS (AUC-based score)); higher = stronger drug effect (viability inhibition or cytotoxicity); extreme values may be limits of the assay; settings: incubation time: 72 h
Outline: (§4)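 The area under the fitted dose-response curve was used to calculate the drug sensitivity score. Cells from breast cancer lines were incubated for 72 h in 384-well plates with compound at 5 concentrations spaced 10-fold over a 10,000-fold range specific to each compound. Plates were read for CellTox Green and then CellTiter-Glo, and normalised to 0.1 % DMSO and a positive kill control.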

Hs578T [25] = assay: as above; settings: incubation time: 72 h
Outline: as §4

MDA-MB-468 [26] = assay: as above; settings: incubation time: 72 h
Outline: as §4

CAL-120 [27] = settings: 72 h
Outline: as §1

Hs578T [28] = settings: 72 h
Outline: as §1

## CN(C)C[C@@H]1CCn2cc(c3ccccc32)C2=C(C(=O)NC2=O)c2cn(c3ccccc23)CCO1 [Ruboxistaurin]
BT-474 [1]
  EC50, CellTiter-Glo: 2390 nM
BT-549 [2]
  EC50, CellTiter-Glo: 2460 nM
CAL-51 [3]
  EC50, CellTiter-Glo: 2770 nM
CAL-85-1 [4]
  EC50, CellTiter-Glo: 3470 nM
HCC1937
  EC50, CellTiter-Glo: 6180 nM
MCF-10A
  EC50, CellTiter-Glo: 7230 nM
MDA-MB-231 [5]
  EC50, CellTiter-Glo: 2590 nM
MDA-MB-436
  EC50, CellTiter-Glo: 2670 nM
MDA-MB-453 [6]
  EC50, CellTiter-Glo: 2920 nM
MDA-MB-468 [7]
  EC50, CellTiter-Glo: 1700 nM
SK-BR-3 [8]
  EC50, CellTiter-Glo: 2160 nM
MDA-MB-453 [9]
  EC50, CellTiter-Blue viability: 4240 nM
CAL-148
  normalised viability: 79.4%
CAL-51 [10]
  normalised viability: 70.4%
CAL-85-1 [11]
  normalised viability: 106%
DU-4475 [12]
  normalised viability: 61.1%
HDQ-P1 [13]
  normalised viability: 74.2%
MDA-MB-453 [14]
  normalised viability: 74.2%
BT-474 [15]
  normalised viability: 98.7%
BT-549 [16]
  normalised viability: 89%
CAL-120 [17]
  normalised viability: 126%
CAL-85-1 [18]
  normalised viability: 117%
DU-4475 [19]
  normalised viability: 101%
HCC1143
  normalised viability: 128%
Hs578T [20]
  normalised viability: 68.9%
MDA-MB-231 [21]
  normalised viability: 95.8%
MDA-MB-468 [22]
  normalised viability: 90.1%
SK-BR-3 [23]
  normalised viability: 82.2%
HDQ-P1 [24]
  drug sensitivity score: 4.6
Hs578T [25]
  drug sensitivity score: 0
MDA-MB-468 [26]
  drug sensitivity score: 8.68

## CN1CCN(CCOc2cc(OC3CCOCC3)c3c(Nc4c(Cl)ccc5c4OCO5)ncnc3c2)CC1 [Saracatinib]
BT-474 [1]
  EC50, CellTiter-Glo: 2010 nM
BT-549 [2]
  EC50, CellTiter-Glo: 1600 nM
CAL-120 [27]
  EC50, CellTiter-Glo: > 10000 nM
CAL-51 [3]
  EC50, CellTiter-Glo: 805 nM
CAL-85-1 [4]
  EC50, CellTiter-Glo: 953 nM
HCC1937
  EC50, CellTiter-Glo: > 10000 nM
Hs578T [28]
  EC50, CellTiter-Glo: 2330 nM
MCF-10A
  EC50, CellTiter-Glo: 354 nM
MDA-MB-231 [5]
  EC50, CellTiter-Glo: 901 nM
MDA-MB-436
  EC50, CellTiter-Glo: > 10000 nM
MDA-MB-453 [6]
  EC50, CellTiter-Glo: 1360 nM
MDA-MB-468 [7]
  EC50, CellTiter-Glo: 1840 nM
SK-BR-3 [8]
  EC50, CellTiter-Glo: 2120 nM
MDA-MB-453 [9]
  EC50, CellTiter-Blue viability: 2540 nM
CAL-148
  normalised viability: 65.9%
CAL-51 [10]
  normalised viability: 45%
CAL-85-1 [11]
  normalised viability: 29.1%
DU-4475 [12]
  normalised viability: 120%
HDQ-P1 [13]
  normalised viability: 20.3%
MDA-MB-453 [14]
  normalised viability: 60.9%
BT-474 [15]
  normalised viability: 105%
BT-549 [16]
  normalised viability: 112%
CAL-120 [17]
  normalised viability: 87.7%
CAL-85-1 [18]
  normalised viability: 93.9%
DU-4475 [19]
  normalised viability: 105%
HCC1143
  normalised viability: 84.3%
Hs578T [20]
  normalised viability: 95.7%
MDA-MB-231 [21]
  normalised viability: 76.5%
MDA-MB-468 [22]
  normalised viability: 104%
SK-BR-3 [23]
  normalised viability: 85.3%
HDQ-P1 [24]
  drug sensitivity score: 9.63
Hs578T [25]
  drug sensitivity score: 2.32
MDA-MB-468 [26]
  drug sensitivity score: 3.3
